Laboratory results as given in ChEMBL document CHEMBL3885881, “DrugMatrix”.

Organism: Rattus norvegicus
Test: DrugMatrix - Regimen: Daily Repeat
Type: toxicity, organism-based, Sprague-Dawley
Design: regimen Daily Repeat, gender Male, age 6-8 weeks
Settings: in vivo, po, route oral GAVAGE, […]; for ABSOLUTE BASOPHIL / ABSOLUTE EOSINOPHIL / ABSOLUTE LYMPHOCYTE / ABSOLUTE MONOCYTE / ABSOLUTE SEGMENTED NEUTROPHIL / BASOPHIL / EOSINOPHIL / ERYTHROCYTE COUNT / HEMATOCRIT / HEMOGLOBIN / LEUKOCYTE COUNT / LYMPHOCYTE / MEAN CORPUSCULAR HEMOGLOBIN / MEAN CORPUSCULAR HEMOGLOBIN CONCENTRATION / MEAN CORPUSCULAR VOLUME / MONOCYTE / NEUTROPHIL / NUCLEATED RED BLOOD CELLS / PLATELET COUNT: tissue Blood; for ALANINE AMINOTRANSFERASE / ALBUMIN / ALKALINE PHOSPHATASE / ASPARTATE AMINOTRANSFERASE / BLOOD UREA NITROGEN / CARBON DIOXIDE / CHLORIDE / CHOLESTEROL / CREATINE PHOSPHOKINASE / CREATININE / GLUCOSE / LACTATE DEHYDROGENASE / LIPASE / PHOSPHORUS / POTASSIUM / SODIUM / TOTAL BILIRUBIN / TOTAL PROTEIN / URIC ACID: tissue Plasma
[1] = 0 mg/kg, 72 h, dose level Control, time 3 day
[2] = 0 mg/kg, 120 h, dose level Control, time 5 day
[3] = 29 mg/kg, 72 h, dose level Low, time 3 day

C[C@@H]1CN(c2c(F)c(N)c3c(=O)c(C(=O)O)cn(C4CC4)c3c2F)C[C@H](C)N1 [SPARFLOXACIN]
ABSOLUTE BASOPHIL [1]: 0 CELLS/uL | ABSOLUTE EOSINOPHIL [1]: 70.67 CELLS/uL | ABSOLUTE LYMPHOCYTE [1]: 12761.5 CELLS/uL | ABSOLUTE MONOCYTE [1]: 214.17 CELLS/uL | ABSOLUTE SEGMENTED NEUTROPHIL [1]: 987 CELLS/uL | BASOPHIL [1]: 0% | EOSINOPHIL [1]: 0.5% | ERYTHROCYTE COUNT [1]: 5.61 x10E6/uL | HEMATOCRIT [1]: 35.22% | HEMOGLOBIN [1]: 13.57 G/DL | LEUKOCYTE COUNT [1]: 14.03 x10E3/uL | LYMPHOCYTE [1]: 91% | MEAN CORPUSCULAR HEMOGLOBIN [1]: 24.25 pg | MEAN CORPUSCULAR HEMOGLOBIN CONCENTRATION [1]: 38.52 G/DL | MEAN CORPUSCULAR VOLUME [1]: 62.9 fL | MONOCYTE [1]: 1.5% | NEUTROPHIL [1]: 7% | NUCLEATED RED BLOOD CELLS [1]: 0 /100WBC | PLATELET COUNT [1]: 997.5 x10E3/uL | ALANINE AMINOTRANSFERASE [1]: 66.5 u/L | ALBUMIN [1]: 3.98 G/DL | ALKALINE PHOSPHATASE [1]: 350 u/L | ASPARTATE AMINOTRANSFERASE [1]: 83.83 u/L | BLOOD UREA NITROGEN [1]: 12.33 mg/dL | CARBON DIOXIDE [1]: 30.33 mmol/L | CHLORIDE [1]: 100 MEQ/L | CHOLESTEROL [1]: 75 mg/dL | CREATINE PHOSPHOKINASE [1]: 200 u/L | CREATININE [1]: 0.17 mg/dL | GLUCOSE [1]: 170 mg/dL | LACTATE DEHYDROGENASE [1]: 89.33 u/L | LIPASE [1]: 10.33 u/L | PHOSPHORUS [1]: 10.88 mg/dL | POTASSIUM [1]: 6.13 MEQ/L | SODIUM [1]: 140.53 MEQ/L | TOTAL BILIRUBIN [1]: 0.2 mg/dL | TOTAL PROTEIN [1]: 5.67 G/DL | URIC ACID [1]: 1.6 mg/dL | ABSOLUTE BASOPHIL [2]: 0 CELLS/uL | ABSOLUTE EOSINOPHIL [2]: 0 CELLS/uL | ABSOLUTE LYMPHOCYTE [2]: 9526.67 CELLS/uL | ABSOLUTE MONOCYTE [2]: 134.17 CELLS/uL | ABSOLUTE SEGMENTED NEUTROPHIL [2]: 922.5 CELLS/uL | BASOPHIL [2]: 0% | EOSINOPHIL [2]: 0% | ERYTHROCYTE COUNT [2]: 5.58 x10E6/uL | HEMATOCRIT [2]: 34.78% | HEMOGLOBIN [2]: 13.5 G/DL | LEUKOCYTE COUNT [2]: 10.58 x10E3/uL | LYMPHOCYTE [2]: 90.17% | MEAN CORPUSCULAR HEMOGLOBIN [2]: 24.27 pg | MEAN CORPUSCULAR HEMOGLOBIN CONCENTRATION [2]: 38.82 G/DL | MEAN CORPUSCULAR VOLUME [2]: 62.48 fL | MONOCYTE [2]: 1.17% | NEUTROPHIL [2]: 8.67% | NUCLEATED RED BLOOD CELLS [2]: 0.17 /100WBC | PLATELET COUNT [2]: 807.17 x10E3/uL | ALANINE AMINOTRANSFERASE [2]: 66.83 u/L | ALBUMIN [2]: 3.73 G/DL | ALKALINE PHOSPHATASE [2]: 286.17 u/L | ASPARTATE AMINOTRANSFERASE [2]: 142.33 u/L | BLOOD UREA NITROGEN [2]: 14.67 mg/dL | CARBON DIOXIDE [2]: 25.5 mmol/L | CHLORIDE [2]: 89.17 MEQ/L | CHOLESTEROL [2]: 75.17 mg/dL | CREATINE PHOSPHOKINASE [2]: 310.67 u/L | CREATININE [2]: 0.2 mg/dL | GLUCOSE [2]: 153 mg/dL | LACTATE DEHYDROGENASE [2]: 1594 u/L | LIPASE [2]: 14.83 u/L | PHOSPHORUS [2]: 11.28 mg/dL | POTASSIUM [2]: 8.46 MEQ/L | SODIUM [2]: 126.88 MEQ/L | TOTAL BILIRUBIN [2]: 0.37 mg/dL | TOTAL PROTEIN [2]: 5.53 G/DL | URIC ACID [2]: 1.52 mg/dL | ABSOLUTE BASOPHIL [3]: 0 CELLS/uL | ABSOLUTE EOSINOPHIL [3]: 0 CELLS/uL | ABSOLUTE LYMPHOCYTE [3]: 14451.67 CELLS/uL | ABSOLUTE MONOCYTE [3]: 45 CELLS/uL | ABSOLUTE SEGMENTED NEUTROPHIL [3]: 1203.33 CELLS/uL | BASOPHIL [3]: 0% | EOSINOPHIL [3]: 0% | ERYTHROCYTE COUNT [3]: 5.64 x10E6/uL | HEMATOCRIT [3]: 35.07% | HEMOGLOBIN [3]: 13.97 G/DL | LEUKOCYTE COUNT [3]: 15.7 x10E3/uL | LYMPHOCYTE [3]: 92% | MEAN CORPUSCULAR HEMOGLOBIN [3]: 24.77 pg | MEAN CORPUSCULAR HEMOGLOBIN CONCENTRATION [3]: 39.83 G/DL | MEAN CORPUSCULAR VOLUME [3]: 62.2 fL | MONOCYTE [3]: 0.33% | NEUTROPHIL [3]: 7.67% | NUCLEATED RED BLOOD CELLS [3]: 0.33 /100WBC | PLATELET COUNT [3]: 1161 x10E3/uL | ALANINE AMINOTRANSFERASE [3]: 67.67 u/L | ALBUMIN [3]: 4 G/DL | ALKALINE PHOSPHATASE [3]: 395.67 u/L | ASPARTATE AMINOTRANSFERASE [3]: 96.33 u/L | BLOOD UREA NITROGEN [3]: 9.67 mg/dL | CARBON DIOXIDE [3]: 25 mmol/L | CHLORIDE [3]: 102.33 MEQ/L | CHOLESTEROL [3]: 76.33 mg/dL | CREATINE PHOSPHOKINASE [3]: 757 u/L | CREATININE [3]: 0.16 mg/dL | GLUCOSE [3]: 172.67 mg/dL | LACTATE DEHYDROGENASE [3]: 255.33 u/L | LIPASE [3]: 10.33 u/L | PHOSPHORUS [3]: 11.53 mg/dL | POTASSIUM [3]: 6.56 MEQ/L | SODIUM [3]: 142.23 MEQ/L | TOTAL BILIRUBIN [3]: 0.13 mg/dL | TOTAL PROTEIN [3]: 5.83 G/DL | URIC ACID [3]: 1.93 mg/dL
